Key:
[1] = biological target: T1, OR1A1 (Homo sapiens, UniProt Q9P1Q5); assay: cell-based odorant assay, cAMP increase (HTRF), OR1A1; conditions: modified RTP1 HEK293T cell line compared to unmodified control cell line
T1 construct: expressed in transfected cells
T1 sequence (Q9P1Q5 1-309): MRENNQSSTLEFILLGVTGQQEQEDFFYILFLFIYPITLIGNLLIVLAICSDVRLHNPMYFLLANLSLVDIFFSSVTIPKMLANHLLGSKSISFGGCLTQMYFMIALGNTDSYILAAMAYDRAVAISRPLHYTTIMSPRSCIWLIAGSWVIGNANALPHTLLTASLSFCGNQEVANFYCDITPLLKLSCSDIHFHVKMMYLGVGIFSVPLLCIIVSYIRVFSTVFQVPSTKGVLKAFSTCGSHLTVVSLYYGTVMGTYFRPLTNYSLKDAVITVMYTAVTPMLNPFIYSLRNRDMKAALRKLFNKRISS

[2] = tested on: Olfr742; assay: cell-based odorant assay, cAMP increase (HTRF), Olfr742; parameters: species or system mouse
Method: (§1) Functional dose-response experiments were performed in order to evaluate the level of functional enhancement of activity of odorant receptors in the modified cell line. Odorant receptors were modified at their N-terminus with short polypeptide sequences or tags [e.g. Flag (SEQ ID NO: 15), Rho (SEQ ID NO: 17; 20 first amino acids of the bovine rhodopsin receptor), or Lucy (SEQ ID NO: 19)], transiently expressed in WT or modified HEK293T cells, and stimulated with odorant compounds to determine the activity of the receptors. FIGS. 7 and 8) Using a cell-based odorant binding assay, the activity of Olfr741 (SEQ ID NO: 4) and Olfr742 (SEQ ID NO: 6) to indole was tested in the engineered RTP1 cell line and compared to HEK293T lacking RTP1 protein expression. Odorant receptors were transfected into both cell lines and exposed to increasing concentrations of indole. Odorant-induced activity was detected by measuring the level of cAMP increase in the cytosol using an HTRF based kit (CisBio, cAMP dynamic 2 kit, cat #62AM4PEJ). FIGS. 9 and 10) Using the same cell-based odorant binding assay, the activity of Olfr96 (SEQ ID NO: 8) and OR11A1 (SEQ ID NO: 10) to vulcanolide was tested in the engineered RTP1 expressing cell line and compared to HEK293T lacking RTP1 protein expression. The activity of Olfr740 (SEQ ID NO: 12) to indole was also tested in both cellular backgrounds. […]

[3] = tested on: Olfr741; assay: cell-based odorant assay, cAMP increase (HTRF), Olfr741; parameters: species or system mouse
Method: as §1

[4] = tested on: Olfr740; assay: cell-based odorant assay, cAMP increase (HTRF), Olfr740; parameters: species or system mouse
Method: as §1

[5] = tested on: Olfr96; assay: cell-based odorant assay, cAMP increase (HTRF), Olfr96; parameters: species or system mouse
Method: as §1

[6] = biological target: T2, OR11A1 (Homo sapiens, UniProt Q9GZK7); assay: cell-based odorant assay, cAMP increase (HTRF), OR11A1
T2 construct: expressed in transfected cells
T2 sequence (Q9GZK7 1-315): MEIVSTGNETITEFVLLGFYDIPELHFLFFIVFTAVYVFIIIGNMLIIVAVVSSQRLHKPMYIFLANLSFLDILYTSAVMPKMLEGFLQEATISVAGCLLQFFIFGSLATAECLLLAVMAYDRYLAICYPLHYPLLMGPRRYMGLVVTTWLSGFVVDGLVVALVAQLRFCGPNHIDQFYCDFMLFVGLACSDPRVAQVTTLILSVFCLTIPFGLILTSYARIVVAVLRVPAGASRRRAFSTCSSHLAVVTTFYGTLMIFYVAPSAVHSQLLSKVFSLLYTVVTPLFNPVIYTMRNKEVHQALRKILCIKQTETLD
Method: as §1

[7] = modified RTP1 HEK293T cell line, increasing concentrations
[8] = unmodified control HEK293T lacking RTP1 expression

SMILES: C=C(C)C1CC=C(C)C(=O)C1 (stereo not drawn) [carvone-(−)]
- receptor activity (cAMP increase), dose-response [1]: more potent dose-dependent increase of receptor activity

SMILES: c1ccc2[nH]ccc2c1 [indole]
- receptor activity (cAMP increase), dose-response [2, 7]: dose-dependent increase of receptor activity
- receptor activity (cAMP increase), dose-response [2, 8]: not in the unmodified control cell line
- receptor activity (cAMP increase), dose-response [3, 7]: dose-dependent increase of receptor activity
- receptor activity (cAMP increase), dose-response [3, 8]: not in the unmodified control cell line
- receptor activity (cAMP increase), dose-response [4, 7]: dose-dependent increase of receptor activity
- receptor activity (cAMP increase), dose-response [4, 8]: not in the unmodified control cell line

SMILES: Cc1cc2c(cc1C=O)C(C)(C)[C@@H](C)[C@H](C)C2(C)C [vulcanolide]
- receptor activity (cAMP increase), dose-response [5, 7]: dose-dependent increase of receptor activity
- receptor activity (cAMP increase), dose-response [5, 8]: not in the unmodified control cell line
- receptor activity (cAMP increase), dose-response [6, 7]: dose-dependent increase of receptor activity
- receptor activity (cAMP increase), dose-response [6, 8]: not in the unmodified control cell line

Reference: US11267852B2, “Cell lines for screening odorant and aroma receptors” (Firmenich SA, priority 2015, dated 2022)
